Measured values: the NIST ThermoML archive (doi:10.1007/s10765-009-0579-1)
± gives the expanded uncertainty stated by the source.

Experiment: xn = mol fraction of the nth substance listed
Settings: Gas; for viscosity: Oscillating disk viscometry; for mass density: Pycnometric method
[1] = 348.15 K, 736.9 kPa, x2 = 0.2615
[2] = 348.15 K, 781.7 kPa, x2 = 0.5169
[3] = 348.15 K, 782.5 kPa, x2 = 0.7502
[4] = 348.15 K, 887.3 kPa, x2 = 0.2615
[5] = 348.15 K, 925.6 kPa, x2 = 0.7502
[6] = 348.15 K, 930.2 kPa, x2 = 0.5169
[7] = 348.15 K, 1036 kPa, x2 = 0.2615
[8] = 348.15 K, 1077 kPa, x2 = 0.5169
[9] = 348.15 K, 1090 kPa, x2 = 0.7502
[10] = 348.15 K, 1182 kPa, x2 = 0.2615
[11] = 348.15 K, 1240 kPa, x2 = 0.7502
[12] = 348.15 K, 1262 kPa, x2 = 0.5169
[13] = 348.15 K, 1334 kPa, x2 = 0.2615
[14] = 348.15 K, 1392 kPa, x2 = 0.7502
[15] = 348.15 K, 1408 kPa, x2 = 0.5169
[16] = 348.15 K, 1489 kPa, x2 = 0.2615
[17] = 348.15 K, 1541 kPa, x2 = 0.7502
[18] = 348.15 K, 1552 kPa, x2 = 0.5169
[19] = 348.15 K, 1683 kPa, x2 = 0.7502
[20] = 373.15 K, 101.5 kPa, x2 = 0.5169
[21] = 373.15 K, 102.1 kPa, x2 = 0.7502
[22] = 373.15 K, 102.2 kPa, x2 = 0.2615
[23] = 373.15 K, 245.8 kPa, x2 = 0.7502
[24] = 373.15 K, 294.3 kPa, x2 = 0.5169
[25] = 373.15 K, 298.2 kPa, x2 = 0.2615
[26] = 373.15 K, 390.1 kPa, x2 = 0.7502
[27] = 373.15 K, 493.6 kPa, x2 = 0.2615
[28] = 373.15 K, 583.4 kPa, x2 = 0.7502
[29] = 373.15 K, 686.2 kPa, x2 = 0.5169
[30] = 373.15 K, 695.2 kPa, x2 = 0.2615
[31] = 373.15 K, 782.8 kPa, x2 = 0.7502
[32] = 373.15 K, 876.7 kPa, x2 = 0.2615
[33] = 373.15 K, 889.8 kPa, x2 = 0.2615
[34] = 373.15 K, 978.5 kPa, x2 = 0.7502
[35] = 373.15 K, 1080 kPa, x2 = 0.5169
[36] = 373.15 K, 1085 kPa, x2 = 0.2615
[37] = 373.15 K, 1173 kPa, x2 = 0.7502
[38] = 373.15 K, 1277 kPa, x2 = 0.5169
[39] = 373.15 K, 1281 kPa, x2 = 0.2615
[40] = 373.15 K, 1361 kPa, x2 = 0.7502
[41] = 373.15 K, 1472 kPa, x2 = 0.5169
[42] = 373.15 K, 1483 kPa, x2 = 0.2615
[43] = 373.15 K, 1565 kPa, x2 = 0.7502
[44] = 373.15 K, 1666 kPa, x2 = 0.5169
[45] = 373.15 K, 1689 kPa, x2 = 0.2615
[46] = 373.15 K, 1760 kPa, x2 = 0.7502
[47] = 373.15 K, 1862 kPa, x2 = 0.5169
[48] = 373.15 K, 1897 kPa, x2 = 0.2615
[49] = 373.15 K, 1952 kPa, x2 = 0.7502
[50] = 373.15 K, 2065 kPa, x2 = 0.5169
[51] = 373.15 K, 2115 kPa, x2 = 0.2615
[52] = 373.15 K, 2190 kPa, x2 = 0.7502
[53] = 373.15 K, 2295 kPa, x2 = 0.5169
[54] = 373.15 K, 2299 kPa, x2 = 0.2615
[55] = 373.15 K, 2398 kPa, x2 = 0.7502
[56] = 373.15 K, 2448 kPa, x2 = 0.5169
[57] = 373.15 K, 2467 kPa, x2 = 0.2615

CC(F)(F)Cl [1-chloro-1,1-difluoroethane] + FC(F)Cl
viscosity [1]: 0.01297 ± 0.00046 mPa·s | mass density [1]: 27.57 ± 0.21 kg/m3 | viscosity [2]: 0.01358 ± 0.00047 mPa·s | mass density [2]: 27.87 ± 0.21 kg/m3 | viscosity [3]: 0.01425 ± 0.00049 mPa·s | mass density [3]: 26.5 ± 0.21 kg/m3 | viscosity [4]: 0.01301 ± 0.00046 mPa·s | mass density [4]: 34.14 ± 0.21 kg/m3 | viscosity [5]: 0.01428 ± 0.00049 mPa·s | mass density [5]: 31.97 ± 0.21 kg/m3 | viscosity [6]: 0.01365 ± 0.00047 mPa·s | mass density [6]: 33.93 ± 0.21 kg/m3 | viscosity [7]: 0.01302 ± 0.00046 mPa·s | mass density [7]: 40.96 ± 0.21 kg/m3 | viscosity [8]: 0.01365 ± 0.00047 mPa·s | mass density [8]: 40.31 ± 0.21 kg/m3 | viscosity [9]: 0.0143 ± 0.00049 mPa·s | mass density [9]: 38.36 ± 0.21 kg/m3 | viscosity [10]: 0.01307 ± 0.00046 mPa·s | mass density [10]: 48.22 ± 0.22 kg/m3 | viscosity [11]: 0.01438 ± 0.00049 mPa·s | mass density [11]: 44.53 ± 0.21 kg/m3 | viscosity [12]: 0.0137 ± 0.00047 mPa·s | mass density [12]: 48.67 ± 0.21 kg/m3 | viscosity [13]: 0.01312 ± 0.00046 mPa·s | mass density [13]: 56.48 ± 0.22 kg/m3 | viscosity [14]: 0.01443 ± 0.00049 mPa·s | mass density [14]: 51.21 ± 0.21 kg/m3 | viscosity [15]: 0.01377 ± 0.00047 mPa·s | mass density [15]: 56 ± 0.22 kg/m3 | viscosity [16]: 0.01325 ± 0.00046 mPa·s | mass density [16]: 65.73 ± 0.22 kg/m3 | viscosity [17]: 0.0145 ± 0.00049 mPa·s | mass density [17]: 58.1 ± 0.21 kg/m3 | viscosity [18]: 0.01386 ± 0.00048 mPa·s | mass density [18]: 63.84 ± 0.22 kg/m3 | viscosity [19]: 0.01457 ± 0.00049 mPa·s | mass density [19]: 64.7 ± 0.22 kg/m3 | viscosity [20]: 0.01451 ± 0.00049 mPa·s | mass density [20]: 3.079 ± 0.23 kg/m3 | viscosity [21]: 0.01518 ± 0.00051 mPa·s | mass density [21]: 2.984 ± 0.23 kg/m3 | viscosity [22]: 0.01377 ± 0.00047 mPa·s | mass density [22]: 3.224 ± 0.23 kg/m3 | viscosity [23]: 0.01517 ± 0.00051 mPa·s | mass density [23]: 7.266 ± 0.23 kg/m3 | viscosity [24]: 0.01449 ± 0.00049 mPa·s | mass density [24]: 9.101 ± 0.23 kg/m3 | viscosity [25]: 0.0138 ± 0.00048 mPa·s | mass density [25]: 9.612 ± 0.23 kg/m3 | viscosity [26]: 0.0152 ± 0.00051 mPa·s | mass density [26]: 11.68 ± 0.23 kg/m3 | viscosity (373.15 K, 490 kPa, x2 = 0.5169): 0.01452 ± 0.00049 mPa·s | mass density (373.15 K, 490 kPa, x2 = 0.5169): 15.46 ± 0.23 kg/m3 | viscosity [27]: 0.01381 ± 0.00048 mPa·s | mass density [27]: 16.27 ± 0.23 kg/m3 | viscosity [28]: 0.01521 ± 0.00051 mPa·s | mass density [28]: 17.74 ± 0.23 kg/m3 | viscosity [29]: 0.01454 ± 0.00049 mPa·s | mass density [29]: 22.09 ± 0.23 kg/m3 | viscosity [30]: 0.01381 ± 0.00048 mPa·s | mass density [30]: 23.4 ± 0.23 kg/m3 | viscosity [31]: 0.01526 ± 0.00051 mPa·s | mass density [31]: 24.22 ± 0.23 kg/m3 | viscosity [32]: 0.01387 ± 0.00048 mPa·s | mass density [32]: 30.25 ± 0.24 kg/m3 | viscosity (373.15 K, 879 kPa, x2 = 0.5169): 0.01458 ± 0.00049 mPa·s | mass density (373.15 K, 879 kPa, x2 = 0.5169): 28.79 ± 0.23 kg/m3 | viscosity [33]: 0.01388 ± 0.00048 mPa·s | mass density [33]: 30.77 ± 0.24 kg/m3 | viscosity [34]: 0.0153 ± 0.00051 mPa·s | mass density [34]: 30.82 ± 0.23 kg/m3 | viscosity [35]: 0.01464 ± 0.0005 mPa·s | mass density [35]: 36.34 ± 0.23 kg/m3 | viscosity [36]: 0.01394 ± 0.00048 mPa·s | mass density [36]: 38.57 ± 0.23 kg/m3 | viscosity [37]: 0.01535 ± 0.00051 mPa·s | mass density [37]: 37.6 ± 0.23 kg/m3 | viscosity [38]: 0.01476 ± 0.0005 mPa·s | mass density [38]: 43.98 ± 0.23 kg/m3 | viscosity [39]: 0.01403 ± 0.00048 mPa·s | mass density [39]: 46.94 ± 0.23 kg/m3 | viscosity [40]: 0.01542 ± 0.00051 mPa·s | mass density [40]: 44.52 ± 0.23 kg/m3 | viscosity [41]: 0.0148 ± 0.0005 mPa·s | mass density [41]: 51.98 ± 0.23 kg/m3 | viscosity [42]: 0.01413 ± 0.00048 mPa·s | mass density [42]: 56.2 ± 0.24 kg/m3 | viscosity [43]: 0.0155 ± 0.00052 mPa·s | mass density [43]: 52.28 ± 0.23 kg/m3 | viscosity [44]: 0.01486 ± 0.0005 mPa·s | mass density [44]: 60.38 ± 0.24 kg/m3 | viscosity [45]: 0.01426 ± 0.00049 mPa·s | mass density [45]: 66.3 ± 0.24 kg/m3 | viscosity [46]: 0.01559 ± 0.00052 mPa·s | mass density [46]: 60.2 ± 0.24 kg/m3 | viscosity [47]: 0.01502 ± 0.0005 mPa·s | mass density [47]: 69.61 ± 0.24 kg/m3 | viscosity [48]: 0.01439 ± 0.00049 mPa·s | mass density [48]: 77.72 ± 0.24 kg/m3 | viscosity [49]: 0.01568 ± 0.00052 mPa·s | mass density [49]: 68.25 ± 0.24 kg/m3 | viscosity [50]: 0.01509 ± 0.00051 mPa·s | mass density [50]: 80.02 ± 0.24 kg/m3 | viscosity [51]: 0.01461 ± 0.00049 mPa·s | mass density [51]: 91.26 ± 0.25 kg/m3 | viscosity [52]: 0.01586 ± 0.00052 mPa·s | mass density [52]: 79.1 ± 0.24 kg/m3 | viscosity [53]: 0.01537 ± 0.00051 mPa·s | mass density [53]: 92.76 ± 0.24 kg/m3 | viscosity [54]: 0.01486 ± 0.0005 mPa·s | mass density [54]: 104.3 ± 0.3 kg/m3 | viscosity [55]: 0.01602 ± 0.00053 mPa·s | mass density [55]: 89.07 ± 0.24 kg/m3 | viscosity [56]: 0.01542 ± 0.00051 mPa·s | mass density [56]: 102 ± 0.3 kg/m3 | viscosity [57]: 0.01516 ± 0.00051 mPa·s | mass density [57]: 117.9 ± 0.3 kg/m3
